Data as given in patent US20240415840A1, “BICYCLIC AMINES AS CDK2 INHIBITORS” (Incyte Corporation, priority 2023, published 2024).
Where “and” joins values, the source holds several entries; their conditions need not be identical. Equal entries are not always repeated. Where two headings read alike, the source gives them in different places.

Tests used:
CDK2/Cyclin E1 = molecular target: T1, CDK2/Cyclin E1 (Homo sapiens, UniProt P24941); assay: CDK2/Cyclin E1 HTRF enzyme activity assay; format: biochemical; details: 1 mM ATP
T1 construct: enzyme activity assays utilize full-length human CDK2; GST (N); purchased Carna 04-165; host or cells: baculovirus expression system
Description: CDK2/Cyclin E1 enzyme activity assays utilize full-length human CDK2 co-expressed as N-terminal GST-tagged protein with FLAG-Cyclin E1 in a baculovirus expression system (Carna Product Number 04-165). Assays were conducted in white 384-well polystyrene plates in a final reaction volume of 8 μL. CDK2/Cyclin E1 (0.25 nM) was incubated with the compounds of the Examples (40 nL serially diluted in DMSO) in the presence of ATP (50 μM or 1 mM) and 50 nM ULight™-labeled eIF4E-binding protein 1 (THR37/46) peptide (PerkinElmer) in assay buffer (containing 50 mM HEPES pH 7.5, 1 mM EGTA, 10 mM MgCl2, 2 mM DTT, 0.05 mg/mL BSA, and 0.01% Tween 20) for 60 minutes at room temperature. The reactions were stopped by the addition of EDTA and Europium-labeled anti-phospho-4E-BP1 antibody (PerkinElmer), for a final concentration of 15 mM and 1.5 nM, respectively. HTRF signals were read after 1 hour at room temperature on a PHERAstar FS plate reader (BMG Labtech). Data was analyzed with Genedata Screener software using a three or four parameter dose response curve to determine IC50 for each compound.

[1] = In vivo rat CNS protocol: brain, CSF and plasma concentrations after IV dosing
Description: The brain, CSF, and plasma concentrations of the compound of Example 1 (8-isopropoxy-7-(1H-pyrazol-4-yl)-N-(tetrahydro-2H-pyran-4-yl)-[1,2,4]triazolo[1,5-c]pyrimidin-2-amine) were determined in rats after IV dosing. The compound of Example 1 was formulated in 10% dimethylacetamide in acidified saline. Male rats (n=4) were given an IV bolus of the compound of Example 1 at 2.0 mg/kg, followed by an IV infusion at 1.2 mg/kg/h for 4 hours. Blood samples were collected at 2 hours and 4 hours in tubes containing EDTA as anticoagulant and centrifuged to obtain plasma. At 4 hours, brain and CSF samples were also collected. The CSF samples were mixed with blank rat plasma (1:1 v/v) to minimize adsorption of the compound of Example 1 to the collection device. Brain, CSF, and plasma samples were frozen and concentrations of the compound of Example 1 were determined by LC-MS/MS.

BCRP = molecular target: T2, BCRP (Homo sapiens, UniProt Q9UNQ0); assay: Efflux transporter substrate assessment (Caco-2 studies), BCRP; format: in vitro ADME
T2 construct: in vitro permeability studies using Caco-2 cells; endogenous in cells; host or cells: Caco-2 cells
T2 sequence (Q9UNQ0 1-655): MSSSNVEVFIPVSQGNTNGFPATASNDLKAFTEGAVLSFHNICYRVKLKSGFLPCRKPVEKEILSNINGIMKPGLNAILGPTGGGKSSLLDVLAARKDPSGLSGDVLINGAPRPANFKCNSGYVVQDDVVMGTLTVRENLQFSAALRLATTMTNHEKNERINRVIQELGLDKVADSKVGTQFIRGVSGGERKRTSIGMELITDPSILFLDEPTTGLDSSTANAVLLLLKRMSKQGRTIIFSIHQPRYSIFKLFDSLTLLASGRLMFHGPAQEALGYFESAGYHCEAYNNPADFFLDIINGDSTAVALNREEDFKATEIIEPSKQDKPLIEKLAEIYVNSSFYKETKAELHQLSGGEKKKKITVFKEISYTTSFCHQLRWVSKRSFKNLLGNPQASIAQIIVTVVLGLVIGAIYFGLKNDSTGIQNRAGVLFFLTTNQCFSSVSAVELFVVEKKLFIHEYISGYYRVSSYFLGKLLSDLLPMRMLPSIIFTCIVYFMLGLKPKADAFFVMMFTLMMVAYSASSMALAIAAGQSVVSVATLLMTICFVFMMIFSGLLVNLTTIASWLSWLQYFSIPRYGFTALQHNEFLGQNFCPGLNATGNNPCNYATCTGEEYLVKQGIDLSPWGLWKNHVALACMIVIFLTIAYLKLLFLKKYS

P-gp = molecular target: T3, P-gp (Homo sapiens, UniProt P08183); assay: Efflux transporter substrate assessment (Caco-2 studies), P-gp; format: in vitro ADME
T3 construct: in vitro permeability studies using Caco-2 cells; endogenous in cells; host or cells: Caco-2 cells
T3 sequence (P08183 whole entry): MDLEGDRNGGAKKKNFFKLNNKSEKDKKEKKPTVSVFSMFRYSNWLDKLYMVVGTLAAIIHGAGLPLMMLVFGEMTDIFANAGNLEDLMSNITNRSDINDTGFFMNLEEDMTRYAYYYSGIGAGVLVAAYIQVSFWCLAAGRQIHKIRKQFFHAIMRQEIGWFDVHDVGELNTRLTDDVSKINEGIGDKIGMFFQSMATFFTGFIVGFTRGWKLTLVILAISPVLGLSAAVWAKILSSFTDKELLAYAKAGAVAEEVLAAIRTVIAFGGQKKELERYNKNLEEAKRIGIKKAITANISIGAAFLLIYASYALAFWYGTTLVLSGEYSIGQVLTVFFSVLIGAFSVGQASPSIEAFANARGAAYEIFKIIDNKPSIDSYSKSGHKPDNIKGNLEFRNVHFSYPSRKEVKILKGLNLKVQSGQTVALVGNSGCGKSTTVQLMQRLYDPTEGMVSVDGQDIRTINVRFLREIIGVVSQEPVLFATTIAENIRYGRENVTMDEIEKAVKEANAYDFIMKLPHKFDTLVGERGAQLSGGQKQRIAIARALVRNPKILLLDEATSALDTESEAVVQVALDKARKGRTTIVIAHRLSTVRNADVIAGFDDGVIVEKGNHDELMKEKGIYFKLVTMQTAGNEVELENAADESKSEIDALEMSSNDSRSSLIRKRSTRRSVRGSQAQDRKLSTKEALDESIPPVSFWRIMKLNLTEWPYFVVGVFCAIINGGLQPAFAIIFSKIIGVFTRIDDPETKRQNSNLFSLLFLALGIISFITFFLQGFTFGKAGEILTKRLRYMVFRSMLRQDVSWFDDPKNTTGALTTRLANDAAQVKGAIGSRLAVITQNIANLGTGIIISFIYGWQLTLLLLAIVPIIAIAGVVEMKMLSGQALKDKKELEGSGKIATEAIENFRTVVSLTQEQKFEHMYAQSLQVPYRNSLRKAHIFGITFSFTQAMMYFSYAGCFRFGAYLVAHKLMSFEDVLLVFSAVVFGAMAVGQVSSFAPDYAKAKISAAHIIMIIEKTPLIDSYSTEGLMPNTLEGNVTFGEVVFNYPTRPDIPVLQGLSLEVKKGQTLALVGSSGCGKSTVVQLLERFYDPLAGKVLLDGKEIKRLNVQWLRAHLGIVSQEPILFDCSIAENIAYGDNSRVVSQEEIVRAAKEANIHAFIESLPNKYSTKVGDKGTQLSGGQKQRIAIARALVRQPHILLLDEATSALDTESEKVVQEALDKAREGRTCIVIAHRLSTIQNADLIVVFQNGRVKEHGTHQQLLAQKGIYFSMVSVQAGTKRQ

[2] = In vitro rat plasma unbound fraction; format: in vitro ADME
[3] = In vitro permeability studies using Caco-2 cells; format: in vitro ADME; details: human, A-B
Caco-2 cells = assay: In vitro permeability studies using Caco-2 cells; format: in vitro ADME
[4] = male rats (n=4), IV infusion, 4 h, mean ± SD

SMILES: CC(Oc1c(-c2cn[nH]c2)ccn2nc(NC3CCOCC3)nc12)C(F)(F)F (single isomer, unassigned) [Example 3]
- IC50 (CDK2/Cyclin E1): ≤ 10 nM

SMILES: CC(Oc1c(-c2cn[nH]c2)ccn2nc(NC3CCOCC3)nc12)C(F)(F)F (single isomer, unassigned) [Example 4]
- IC50 (CDK2/Cyclin E1): ≤ 10 nM

SMILES: CC(Oc1c(-c2cn[nH]c2)ccn2nc(NC3CCOCC3)nc12)C(F)F (single isomer, unassigned) [Example 5]
- IC50 (CDK2/Cyclin E1): ≤ 10 nM

SMILES: CC(Oc1c(-c2cn[nH]c2)ccn2nc(NC3CCOCC3)nc12)C(F)F (single isomer, unassigned) [Example 6]
- IC50 (CDK2/Cyclin E1): ≤ 10 nM

SMILES: CC(Oc1c(-c2cn[nH]c2)ncn2nc(NC3CCOCC3)nc12)C(F)(F)F (single isomer, unassigned) [Example 7]
- IC50 (CDK2/Cyclin E1): ≤ 10 nM

SMILES: CC(Oc1c(-c2cn[nH]c2)ncn2nc(NC3CCOCC3)nc12)C(F)(F)F (single isomer, unassigned) [Example 8]
- IC50 (CDK2/Cyclin E1): ≤ 10 nM

SMILES: CC(Oc1c(-c2cn[nH]c2)ncn2nc(NC3CCOCC3)nc12)C(F)F (single isomer, unassigned) [Example 9]
- IC50 (CDK2/Cyclin E1): ≤ 10 nM

SMILES: CC(Oc1c(-c2cn[nH]c2)ncn2nc(NC3CCOCC3)nc12)C(F)F (single isomer, unassigned) [Example 10]
- IC50 (CDK2/Cyclin E1): ≤ 10 nM

SMILES: CC(C)Oc1c(-c2cn[nH]c2)ncn2nc(NC3CCOCC3)nc12 [Example 1, 8-Isopropoxy-7-(1H-pyrazol-4-yl)-N-(tetrahydro-2H-pyran-4-yl)-[1,2,4]triazolo[1,5-c]pyrimidin-2-amine]
- Brain/Plasma (%) ([1]; 4 h, individual rats 1001-1004): 60% and 89% and 73%
- CSF/unbound plasma concentration (%) ([1]; 4 h, individual rats 1001-1004): 37% and 42% and 38%
- Plasma free (unbound) concentration, 4 h ([1]; calculated using rat plasma in vitro unbound fraction, 4 h, individual rats 1001-1004): 1.45 µM and 1.22 µM and 1.70 µM
- Plasma total concentration, 4 h, mean ([1]; male rats (n=4), IV bolus 2.0 mg/kg then IV infusion 1.2 mg/kg/h for 4 h, 4 h, mean ± SD): 2.41 ± 0.46 µM
- Brain concentration, 4 h, mean [1, 4]: 1740 ± 370 nM
- CSF concentration, 4 h, mean [1, 4]: 0.579 ± 0.062 µM
- Plasma total concentration, 2 h ([1]; male rats, IV bolus 2.0 mg/kg then IV infusion 1.2 mg/kg/h for 4 h, 2 h, individual rats 1001-1004): 1.44 µM and 1.41 µM and 1.71 µM
- Plasma total concentration, 4 h ([1]; male rats, IV bolus 2.0 mg/kg then IV infusion 1.2 mg/kg/h for 4 h, 4 h, individual rats 1001-1004): 2.55 µM and 2.14 µM and 2.98 µM
- concentration at 4 h ([1]; male rats, IV infusion, 4 h, individual rats 1001-1004, read-out: Brain concentration, 4 h): 1520 nM and 1910 nM and 2170 nM
- concentration at 4 h ([1]; male rats, IV infusion, 4 h, individual rats 1001-1004, read-out: CSF concentration, 4 h): 541 nM and 517 nM and 653 nM
- Kp at 4 h ([1]; male, rat, CSF / unbound plasma, intravenous, 4 h, individual rats 1001-1004, read-out: CSF/unbound plasma concentration (%)): 0.54
- Kp at 4 h ([1]; male, rat, CSF / unbound plasma, intravenous, 4 h, mean, read-out: CSF/unbound plasma concentration (%), mean): 0.43
- concentration at 4 h ([1]; male, rat, CSF, iv, male rats (n=4), IV infusion, 4 h, mean ± SD, read-out: CSF concentration, 4 h, mean): 579 ± 62 nM
- concentration at 4 h ([1]; male, rat, CSF, iv, male rats, IV infusion, 4 h, individual rats 1001-1004, read-out: CSF concentration, 4 h): 604 nM
- Kp at 4 h ([1]; male, rat, brain / plasma, intravenous, 4 h, individual rats 1001-1004, read-out: Brain/Plasma (%)): 0.7
- Kp at 4 h ([1]; male, rat, brain / plasma, intravenous, 4 h, mean, read-out: Brain/Plasma (%), mean): 0.73
- concentration at 4 h ([1]; male, rat, brain, iv, male rats (n=4), IV infusion, 4 h, mean ± SD, read-out: Brain concentration, 4 h, mean): 1740 ± 370 nM
- concentration at 4 h ([1]; male, rat, brain, iv, male rats, IV infusion, 4 h, individual rats 1001-1004, read-out: Brain concentration, 4 h): 1360 nM
- concentration at 4 h ([1]; male, rat, plasma (unbound), intravenous, calculated using rat plasma in vitro unbound fraction, 4 h, individual rats 1001-1004, read-out: Plasma free (unbound) concentration, 4 h): 1110 nM
- concentration at 4 h ([1]; male, rat, plasma (unbound), intravenous, calculated using rat plasma in vitro unbound fraction, 4 h, mean ± SD, read-out: Plasma free (unbound) concentration, 4 h, mean): 1370 ± 260 nM
- concentration at 2 h ([1]; male, rat, plasma, intravenous, male rats (n=4), IV bolus 2.0 mg/kg then IV infusion 1.2 mg/kg/h for 4 h, 2 h, mean ± SD, read-out: Plasma total concentration, 2 h, mean): 1460 ± 180 nM
- concentration at 4 h ([1]; male, rat, plasma, intravenous, male rats (n=4), IV bolus 2.0 mg/kg then IV infusion 1.2 mg/kg/h for 4 h, 4 h, mean ± SD, read-out: Plasma total concentration, 4 h, mean): 2410 ± 460 nM
- concentration at 2 h ([1]; male, rat, plasma, intravenous, male rats, IV bolus 2.0 mg/kg then IV infusion 1.2 mg/kg/h for 4 h, 2 h, individual rats 1001-1004, read-out: Plasma total concentration, 2 h): 1270 nM
- concentration at 4 h ([1]; male, rat, plasma, intravenous, male rats, IV bolus 2.0 mg/kg then IV infusion 1.2 mg/kg/h for 4 h, 4 h, individual rats 1001-1004, read-out: Plasma total concentration, 4 h): 1950 nM
- penetration across the rat blood-brain barrier (in words) ([1]; rat, IV infusion): readily penetrates across the rat blood-brain barrier
- IC50 (CDK2/Cyclin E1): ≤ 10 nM
- substrate of BCRP efflux transporter (BCRP): not a substrate
- substrate of P-gp efflux transporter (P-gp): not a substrate
- fraction unbound [2]: 0.57
- Papp A→B [3]: 16 ×10⁻⁶ cm/s
- Caco-2 permeability (in words) (Caco-2 cells): highly permeable

SMILES: CC(C)Oc1c(-c2cn[nH]c2)ccn2nc(NC3CCOCC3)nc12 [Example 2, 8-Isopropoxy-7-(1H-pyrazol-4-yl)-N-(tetrahydro-2H-pyran-4-yl)-[1,2,4]triazolo[1,5-a]pyridin-2-amine]
- IC50 (CDK2/Cyclin E1): ≤ 10 nM
